Our source for the IC50 values is patent US20240327392A1, “HETEROCYCLOALKYL-SUBSTITUTED POLYHETEROAZOLE DERIVATIVES AS MEDICAMENTS FOR TREATING AND/OR PREVENTING RS VIRUS INFECTIONS” (ALBIUS SCIENCES ALPHA PRIVATE LIMITED, priority 2021, published 2024).

The structures appear in SMILES notation. Where only a bound is given, the exact number is not on record here.

The subject of one assay is human RS virus A2 strain. The assay is described as follows: In vitro test for anti-RS virus proliferation inhibitory activity (quantitative RT-PCR of RS virus RNA copy number in infected Vero cells). Conditions: 72 h; Vero cells infected with human RS virus A2 strain, 3 days of incubation, RS virus RNA copy number by quantitative RT-PCR; read-out: Anti-RS virus Activity. Format: cell-based. The method in brief: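 Vero cells infected with RSV A2 (1.7×10^4 TCID50/mL in inoculum mix) with compound in 10% FCS EMEM, 3 days at 37 °C, 5% CO2. Lysate viral N-gene RNA quantified by one-step SYBR qRT-PCR; copy number by comparative Ct relative to untreated infected cells.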
Consider `CCOC(=O)C1CCN(S(=O)(=O)N2C[C@H](c3ccccc3)C[C@H]2c2nc(CCCc3ccccc3)no2)CC1` [Compound 7AC, ethyl 1-(((2S,4S)-4-phenyl2-(3-(3-phenylpropyl)-1,2,4-oxadiazole-5-yl)pyrrolidin-1-yl)sulfonyl)piperidin-4-carboxylate], for which the IC50 lay within 10 to 50 µM.
On the same count and under the same terms, the figure for `O=S(=O)(N1CCCCC1)N1C[C@H](c2ccccc2)C[C@H]1c1nc(CCCc2ccccc2)no1` [Compound 7AD] is 10 to 50 µM; for `O=S(=O)(N1CCOCC1)N1C[C@H](c2ccccc2)C[C@H]1c1nc(CCCc2ccccc2)no1` [Compound 7AE, 4-(((2S,4S)-4-phenyl2-(3-(3-phenylpropyl)-1,2,4-oxadiazole-5-yl)pyrrolidin-1-yl)sulfonyl) morpholine] it is 10 to 50 µM.
Take `COc1ccc(S(=O)(=O)N2C[C@H](c3ccccc3)C[C@H]2c2nc(CCCc3ccccc3)no2)cc1` [Compound 7AI, 5-((2S,4S)-1-((4-methoxyphenyl)sulfonyl)-4-phenylpyrrolidin-2-yl)-3-(3-phenylpropyl)-1,2,4-oxadiazole]: the IC50 was less than 10 µM.
Same read-out and setting: the figure for `O=S(=O)(c1ccc(F)cc1)N1C[C@H](c2ccccc2)C[C@H]1c1nc(CCCc2ccccc2)no1` [Compound 7AJ] is less than 10 µM.
Regarding `CN(C)c1ccc(S(=O)(=O)N2C[C@H](c3ccccc3)C[C@H]2c2nc(CCCc3ccccc3)no2)cc1` [Compound 7AK, N,N-dimethyl-4-(((2S,4S)-4-phenyl2-(3-(3-phenylpropyl)-1,2,4-oxadiazole-5-yl)pyrrolidin-1-yl)sulfonyl)aniline], the IC50 was less than 10 µM.
Same read-out and setting: the figure for `CN(C)c1cccc2c(S(=O)(=O)N3C[C@H](c4ccccc4)C[C@H]3c3nc(CCCc4ccccc4)no3)cccc12` [Compound 7AL, N,N-dimethyl-5-(((2S,4S)-4-phenyl2-(3-(3-phenylpropyl)-1,2,4-oxadiazole-5-yl)pyrrolidin-1-yl)sulfonyl)naphthalen-1-amine] is less than 10 µM.
`CC(C)(C)OC(=O)N1CC(CS(=O)(=O)N2C[C@H](c3ccccc3)C[C@H]2c2nc(CCCc3ccccc3)no2)C1` [Compound 7AM, tert-buthyl 3-((((2S,4S)-4-phenyl2-(3-(3-phenylpropyl)-1,2,4-oxadiazole-5-yl)pyrrolidin-1-yl)sulfonyl)methyl)azetidin-1-carboxylate]: the IC50 is less than 10 µM.
Still for that read-out and setting: the value for `CC(C)(C)OC(=O)N1CCC(CS(=O)(=O)N2C[C@H](c3ccccc3)C[C@H]2c2nc(CCCc3ccccc3)no2)CC1` [Compound 7AN, tert-buthyl 4-((((2S,4S)-4-phenyl2-(3-(3-phenylpropyl)-1,2,4-oxadiazole-5-yl)pyrrolidin-1-yl)sulfonyl)methyl)piperidin-1-carboxylate] was less than 10 µM; that for `CC(C)(C)OC(=O)N1CCC(S(=O)(=O)N2C[C@H](c3ccccc3)C[C@H]2c2nc(CCCc3ccccc3)no2)CC1` [Compound 7AO] was less than 10 µM; that for `O=S(=O)(C1CCOCC1)N1C[C@H](c2ccccc2)C[C@H]1c1nc(CCCc2ccccc2)no1` [Compound 7AP, 5-((2S,4S)-4-phenyl1-((tetrahydro-2H-pyran-4-yl)sulfonyl)pyrrolidin-2-yl)-3-(3-phenylpropyl)-1,2,4-oxadiazole] was less than 10 µM.
On the same count and under the same terms, the value for `CC(C)(C)OC(=O)N1C[C@H](F)C[C@H]1c1nc(CCCc2ccccc2)no1` [Compound 8-1, 3-(3-phenylpropyl)-5-[(2S,4R)-1-tert-butoxycarbonyl-4-fluoropyrrolidin-2-yl]-1,2,4-oxadiazole] was less than 10 µM.

The same assay, now with this note: Vero, 72 h, read-out: Anti-RS virus Activity.
In the case of `S=C(Nc1ccccc1)N1C[C@H](c2ccccc2)C[C@H]1c1nc(CCCc2ccccc2)no1` [Compound 7AQ, (2S,4S)—N,4-di phenyl-2-(3-(3-phenylpropyl)-1,2,4-oxadiazol-5-yl) pyrrolidine-1-carbothioamide], the IC50 fell in the range of 10 to 50 µM.
For the compound `S=C(NCc1ccccc1)N1C[C@H](c2ccccc2)C[C@H]1c1nc(CCCc2ccccc2)no1` [Compound 7AR, (2S,4S)—N-Benzyl-4-phenyl-2-(3-(3-phenylpropyl)-1,2,4-oxadiazol-5-yl) pyrrolidine-1-carbothioamide], the IC50 lay in the range of 10 to 50 µM.
